Among the data in patent publication US9593149B2, “Amylin and calcitonin receptor agonist” (Novo Nordisk A/S, priority 2014, dated 2017) are Solubility and solubility values, retold here.

≈ marks a conversion by molar mass, not a printed value. Numbered stars: 1 amine (or outer) side, 2 acyl side, 3 side chain; on linkers, the order of the positions; unused ones are H or OH. Peptide text beside a SMILES is read from it. * marks the point of attachment. C20 diacid = O=C(O)CCCCCCCCCCCCCCCCCCC(=O)*; C18 diacid = O=C(O)CCCCCCCCCCCCCCCCC(=O)*; γGlu = O=C(O)[C@H](CCC(=O)[*:2])N[*:1]

A short description of the data set: Assay (IV) determination of solubility. The format is physicochemical. Here is the method:
Assay (IV)—Determination of Solubility
The mimylin peptide was dissolved in water at ˜500 nmol/ml and mixed 1:1 with a series of buffers (100 mM glycylglycine pH 3.0, 100 mM glycylglycine pH 4.0, 100 mM glycylglycine pH 5.0, 100 mM bistrispropane pH 6.0, 100 mM bistrispropane pH 6.5, 100 mM bistrispropane pH 7.0, 100 mM bistrispropane pH 7.5, 100 mM bistrispropane pH 8.0).

As for `CC(C)C[C@H](NC(=O)[C@H](CCC(=O)O)NC(=O)[C@H](Cc1cnc[nH]1)NC(=O)[C@H](CC(C)C)NC(=O)[C@H](CCC(=O)O)NC(=O)[C@H](C)NC(=O)[C@H](CO)NC(=O)[C@H](CC(C)C)NC(=O)[C@H](CCCNC(=N)N)NC(=O)CNC(=O)[C@H](CC(C)C)NC(=O)[C@@H](NC(=O)[C@H](C)NC(=O)[C@@H](NC(=O)[C@H](CO)NC(=O)[C@H](CC(C)C)NC(=O)[C@H](CCC(=O)O)NC(=O)[C@H](CO)NC(=O)[C@H](C)NC(=O)[C@H](CCC(=O)O)NC(=O)CCCCCCCCCCCCCCCCC(=O)O)[C@@H](C)O)C(C)C)C(=O)N[C@@H](C)C(=O)N[C@H](C(=O)N[C@@H](CC(C)C)C(=O)N1CCC[C@H]1C(=O)N[C@@H](CCCNC(=N)N)C(=O)N[C@H](C(=O)N[C@@H](CCC(=O)O)C(=O)N1CCC[C@H]1C(=O)NCC(=O)N1CCC[C@H]1C(=O)N[C@@H](CCC(=O)O)C(=O)N[C@@H](CO)C(=O)N1CCC[C@H]1C(N)=O)[C@@H](C)O)[C@@H](C)O` [compound 32, [N-terminal(C18 diacid), 9V, 28P]mimylin] ({C18 diacid}-EASELSTAVLGRLSAELHELATLPRTEPGPESP-NH2), the Solubility entry is recorded as “≧200 μM” (pH 3.0); “≧200 μM” (pH 4.0); “≧200 μM” (pH 5.0); “≧200 μM” (pH 6.0); “≧200 μM” (pH 6.5); “≧200 μM” (pH 7.0). The Solubility entry by setting is: (pH 7.5) “≧200 μM”; (pH 8.0) “≧200 μM”.
Regarding `CC(C)C[C@H](NC(=O)[C@H](CCC(=O)O)NC(=O)[C@H](C)NC(=O)[C@H](CO)NC(=O)[C@H](CC(C)C)NC(=O)[C@H](CCCNC(=N)N)NC(=O)CNC(=O)[C@H](CC(C)C)NC(=O)[C@@H](NC(=O)[C@H](C)NC(=O)[C@@H](NC(=O)[C@H](CO)NC(=O)[C@H](CC(C)C)NC(=O)[C@H](CCC(=O)O)NC(=O)[C@H](CO)NC(=O)[C@H](C)NC(=O)[C@H](CCC(=O)O)NC(=O)CCCCCCCCCCCCCCCCC(=O)O)[C@@H](C)O)C(C)C)C(=O)N[C@@H](C)C(=O)N[C@@H](CCC(=O)O)C(=O)N[C@@H](CC(C)C)C(=O)N[C@@H](C)C(=O)N[C@H](C(=O)N[C@@H](CC(C)C)C(=O)N1CCC[C@H]1C(=O)N[C@@H](CCCNC(=N)N)C(=O)N[C@H](C(=O)N[C@@H](CCC(=O)O)C(=O)N[C@H](C(=O)NCC(=O)N1CCC[C@H]1C(=O)N[C@@H](CCC(=O)O)C(=O)N[C@@H](CO)C(=O)N1CCC[C@H]1C(N)=O)[C@@H](C)O)[C@@H](C)O)[C@@H](C)O` [compound 33, [N-terminal(C18 diacid), 9V, 18A]mimylin] ({C18 diacid}-EASELSTAVLGRLSAELAELATLPRTETGPESP-NH2), the Solubility entry is, setting by setting: (pH 3.0) “≧200 μM”; (pH 5.0) “≧200 μM”; (pH 6.0) “≧200 μM”; (pH 6.5) “≧200 μM”; (pH 7.0) “≧200 μM”; (pH 7.5) “≧200 μM”. In addition, the Solubility result (pH 8.0) is given as “≧200 μM”. The compound further had a solubility at 18 h (pH 4.0) of 1 µM (≈ 3.69 µg/mL).
For `CC(C)C[C@H](NC(=O)[C@H](C)NC(=O)[C@H](C)NC(=O)[C@@H](NC(=O)[C@H](CO)NC(=O)[C@H](CC(C)C)NC(=O)[C@H](CCC(=O)O)NC(=O)[C@H](CO)NC(=O)[C@H](C)NC(=O)[C@H](CCC(=O)O)NC(=O)CC[C@H](NC(=O)CCCCCCCCCCCCCCCCCCC(=O)O)C(=O)O)[C@@H](C)O)C(=O)NCC(=O)N[C@@H](CCCNC(=N)N)C(=O)N[C@@H](CC(C)C)C(=O)N[C@@H](CO)C(=O)N[C@@H](C)C(=O)N[C@@H](CCC(=O)O)C(=O)N[C@@H](CC(C)C)C(=O)N[C@@H](Cc1cnc[nH]1)C(=O)N[C@@H](CCC(=O)O)C(=O)N[C@@H](CC(C)C)C(=O)N[C@@H](C)C(=O)N[C@H](C(=O)N[C@@H](Cc1ccc(O)cc1)C(=O)N1CCC[C@H]1C(=O)N[C@@H](CCCNC(=N)N)C(=O)N[C@H](C(=O)N[C@@H](CCC(=O)O)C(=O)N[C@H](C(=O)NCC(=O)N[C@@H](CO)C(=O)NCC(=O)N[C@@H](CO)C(=O)N1CCC[C@H]1C(N)=O)[C@@H](C)O)[C@@H](C)O)[C@@H](C)O` [compound 34, [N-terminal(C20 diacid-gGlu), 23Y, 30S, 31G]mimylin] ({C20 diacid-γGlu}-EASELSTAALGRLSAELHELATYPRTETGSGSP-NH2), the Solubility entry (pH 3.0) was “≧200 μM”; the Solubility entry (pH 4.0) was “≧200 μM”; the Solubility entry (pH 5.0) was “≧200 μM”; the Solubility entry (pH 6.0) is “≧200 μM”; the Solubility result (pH 6.5) is listed as “≧200 μM”; the Solubility result (pH 7.0) is recorded as “≧200 μM”. Also, the Solubility result was “≧200 μM” (pH 7.5) and “≧200 μM” (pH 8.0).
Turning to `CC(C)C[C@H](NC(=O)[C@H](C)NC(=O)[C@H](C)NC(=O)[C@@H](NC(=O)[C@H](CO)NC(=O)[C@H](CC(C)C)NC(=O)[C@H](CCC(=O)O)NC(=O)[C@H](CO)NC(=O)[C@H](C)NC(=O)CC[C@H](NC(=O)CCCCCCCCCCCCCCCCC(=O)O)C(=O)O)[C@@H](C)O)C(=O)NCC(=O)N[C@@H](CCCNC(=N)N)C(=O)N[C@@H](CC(C)C)C(=O)N[C@@H](CO)C(=O)N[C@@H](C)C(=O)N[C@@H](CCC(=O)O)C(=O)N[C@@H](CC(C)C)C(=O)N[C@@H](Cc1cnc[nH]1)C(=O)N[C@@H](CCC(=O)O)C(=O)N[C@@H](CC(C)C)C(=O)N[C@@H](C)C(=O)N[C@H](C(=O)N[C@@H](CC(C)C)C(=O)N1CCC[C@H]1C(=O)N[C@@H](CCCNC(=N)N)C(=O)N[C@H](C(=O)N[C@@H](CCC(=O)O)C(=O)N[C@H](C(=O)NCC(=O)N[C@@H](CO)C(=O)N1CCC[C@H]1C(=O)N[C@@H](CO)C(=O)N1CCC[C@H]1C(N)=O)[C@@H](C)O)[C@@H](C)O)[C@@H](C)O` [compound 35, [N-terminal(C18 diacid-gGlu), des1, 30S, 31P]mimylin] ({C18 diacid-γGlu}-ASELSTAALGRLSAELHELATLPRTETGSPSP-NH2), the Solubility result is, setting by setting: (pH 3.0) “≧200 μM”; (pH 4.0) “≧200 μM”; (pH 5.0) “≧200 μM”; (pH 6.0) “≧200 μM”; (pH 6.5) “≧200 μM”; (pH 7.0) “≧200 μM”. Moreover, the Solubility entry runs as follows: (pH 7.5) “≧200 μM”; (pH 8.0) “≧200 μM”.
For the compound `CC(C)C[C@H](NC(=O)[C@H](CCCNC(=N)N)NC(=O)CNC(=O)[C@H](CC(C)C)NC(=O)[C@@H](NC(=O)[C@H](C)NC(=O)[C@@H](NC(=O)[C@H](CO)NC(=O)[C@@H](NC(=O)[C@H](CCC(=O)O)NC(=O)[C@H](CO)NC(=O)[C@H](C)NC(=O)[C@H](CCC(=O)O)NC(=O)CCCCCCCCCCCCCCCCC(=O)O)C(C)C)[C@@H](C)O)C(C)C)C(=O)N[C@@H](CO)C(=O)N[C@@H](C)C(=O)N[C@@H](CCC(=O)O)C(=O)N[C@@H](CC(C)C)C(=O)N[C@@H](Cc1cnc[nH]1)C(=O)N[C@@H](CCC(=O)O)C(=O)N[C@H](C(=O)N[C@@H](C)C(=O)N[C@H](C(=O)N[C@@H](CC(C)C)C(=O)N1CCC[C@H]1C(=O)N[C@@H](CCCNC(=N)N)C(=O)N[C@H](C(=O)N[C@@H](CCC(=O)O)C(=O)N[C@H](C(=O)NCC(=O)N1CCC[C@H]1C(=O)N[C@@H](CCC(=O)O)C(=O)N[C@@H](CO)C(=O)N1CCC[C@H]1C(N)=O)[C@@H](C)O)[C@@H](C)O)[C@@H](C)O)C(C)C` [compound 36, [N-terminal(C18 diacid), 5V, 9V, 20V]mimylin] ({C18 diacid}-EASEVSTAVLGRLSAELHEVATLPRTETGPESP-NH2), the solubility at 18 h reads like this: (pH 3.0) 117 µM (≈ 436 µg/mL); (pH 4.0) 9 µM (≈ 33.6 µg/mL); (pH 5.0) 10 µM (≈ 37.3 µg/mL). For the same compound, the Solubility entry (pH 6.0) is “≧200 μM”; the Solubility entry (pH 6.5) was “≧200 μM”; the Solubility result (pH 7.0) was “≧200 μM”; the Solubility entry (pH 7.5) is listed as “≧200 μM”; the Solubility entry (pH 8.0) was “≧200 μM”.
In the case of `CC[C@H](C)[C@H](NC(=O)[C@H](C)NC(=O)[C@@H](NC(=O)[C@H](CO)NC(=O)[C@@H](NC(=O)[C@H](CCC(=O)O)NC(=O)[C@H](CO)NC(=O)[C@H](C)NC(=O)[C@H](CCC(=O)O)NC(=O)CCCCCCCCCCCCCCCCC(=O)O)[C@@H](C)CC)[C@@H](C)O)C(=O)N[C@H](C(=O)NCC(=O)N[C@@H](CCCNC(=N)N)C(=O)N[C@@H](CC(C)C)C(=O)N[C@@H](CO)C(=O)N[C@@H](C)C(=O)N[C@@H](CCC(=O)O)C(=O)N[C@@H](CC(C)C)C(=O)N[C@@H](Cc1cnc[nH]1)C(=O)N[C@@H](CCC(=O)O)C(=O)N[C@@H](CC(C)C)C(=O)N[C@@H](C)C(=O)N[C@H](C(=O)N[C@@H](CC(C)C)C(=O)N1CCC[C@H]1C(=O)N[C@@H](CCCNC(=N)N)C(=O)N[C@H](C(=O)N[C@@H](CCC(=O)O)C(=O)N[C@H](C(=O)NCC(=O)N1CCC[C@H]1C(=O)N[C@@H](CCC(=O)O)C(=O)N[C@@H](CO)C(=O)N1CCC[C@H]1C(N)=O)[C@@H](C)O)[C@@H](C)O)[C@@H](C)O)[C@@H](C)CC` [compound 37, [N-terminal(C18 diacid), 5I, 9I, 10I]mimylin] ({C18 diacid}-EASEISTAIIGRLSAELHELATLPRTETGPESP-NH2), the Solubility entry was “≧200 μM” (pH 3.0); “≧200 μM” (pH 5.0); “≧200 μM” (pH 6.0); “≧200 μM” (pH 6.5); “≧200 μM” (pH 7.0); “≧200 μM” (pH 7.5). Besides, the Solubility entry (pH 8.0) is “≧200 μM”. The compound further returned a solubility at 18 h (pH 4.0) of 18 µM (≈ 67.9 µg/mL).
